For series [1] the following is noted: in water at 23° C.; cited from earlier work.
Series [2] is described as follows: C18 tag solubility in screening solvents (slurry agitated overnight, supernatant assayed by calibrated HPLC). Particulars: organic solvent or mixture, thermodynamic from solid, 20 °C. The series is classed as physicochemical. As for the experimental part:
Provided in this section is an analysis of the solubility of the C18 tag in various organic solvents. All starting materials are either commercially available from Sigma-Aldrich, Oakwood Chemicals, ChemPep Inc., CombiBlocks, or similar vendors, unless otherwise noted, or known in the art and may be synthesized by employing known procedures using ordinary skill.
(3,4,5-trioctadecoxyphenyl)methanol (200 mg) was measured out into a series of 1-dram vials. 1 mL of a screening solvent was added to its corresponding 1-dram vial. The slurry vials were placed on a shaker plate set to 20° C. and agitated overnight. Following agitation, the slurries were transferred to centrifuge tubes and the supernatant was isolated. 100 μL of the isolated supernatant was diluted in 10 mL THF to provides solutions for HPLC analysis using the Agilent 1290 Infinity II system with a Cortecs UPLC C8 1.6 μm 2, 1×150 mm column with a dilution factor of 100. A typical run through the HPLC instrument used a column temperature of 30° C.; an injection volume of 1 μL; a method length of 15 min; a flow rate of 0.3 mL/min; UV Detection: 220 nm; Mobile Phase A: 0.1% TFA in water; Mobile Phase B: 0.1% TFA in ACN; HPLC Gradient: 0 min—95:5 (A:B), 10 min—5:95 (A:B), 13 min—95:5 (A:B). The sample solutions were assayed on a calibrated LC system, and the corresponding C18 tag concentrations are reported below.

Values after ≈ are worked out from the molar mass of the structure shown.

Consider `CC1CCCO1` (centres unmarked) [Example 2-MeTHF, 2-methyltetrahydrofuran], for which the miscibility in water in series [1] is reported as 14 g/100 g.
The solubility is the dissolved amount per volume that the medium holds. For the compound `CCCCCCCCCCCCCCCCCCOc1cc(CO)cc(OCCCCCCCCCCCCCCCCCC)c1OCCCCCCCCCCCCCCCCCC` [C18 Tag, (3,4,5-trioctadecoxyphenyl)methanol], the solubility in series [2] (solvent 2-Me-THF) was 172 mg/mL (≈ 189 mM); in series [2] (solvent CPME), 6.8 mg/mL (≈ 7.44 mM); in series [2] (solvent Heptanes), 1.63 mg/mL (≈ 1.78 mM); in series [2] (solvent MTBE) it was 43.8 mg/mL (≈ 48 mM); in series [2] (solvent PhMe), 57.8 mg/mL (≈ 63.3 mM); in series [2] (solvent THF) it was at least 200 mg/mL. Further, the solubility in series [2] (solvent iPrOAc) is 1.81 mg/mL (≈ 1.98 mM).
